Among the data in patent US11021444B2, “Antiviral compounds” (priority 2013, dated 2021) are EC50, IC50 and CC50 values, retold here.

Where two headings read alike, the source gives them in different places.

The test system of series [1] is Respiratory Syncytial Virus (RSV) long strain. The series is described as follows: microbe, parasite or virus in culture. In kind it is cell-based. To be noted: Tables A and B list compounds by EC50 band. In outline: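 HEp-2 cells infected with 100 TCID50 virus per well, compounds in duplicate, 9-point 1/3 dilutions from 100 μM or 1 μM, 1% DMSO. After 5 days at 37 °C, cell viability (CPE protection) read by CCK-8 absorbance at 450 nm, 630 nm background.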

A further series has as its target recombinant RSV complex (Human respiratory syncytial virus A, UniProt P28887). The series is described as follows: RSV Polymerase Inhibition Assay. In kind it is biochemical. The method, boiled down: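 10 nM recombinant RSV polymerase complex in Tris-HCl pH 7.5, 6 mM MgCl2 with RNA oligonucleotide template and radionucleotides, incubated 2 h at 30 °C with increasing inhibitor concentrations. Reaction stopped with EDTA; radiolabeled RNA product counted by scintillation.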

The subject of another series is RSV replicon. Kind of series: microbe, parasite or virus in culture. Format: cell-based. To be noted: read-out: EC50, the concentration of the drug required for reducing RSV replicon RNA by 50%.
Series [2] can be described thus: Cytotoxicity Determination (CCK-8, without addition of virus). In kind it is cell-based. The following applies: human, 50% cytotoxicity concentration (CC50). In outline: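 HEp-2 cells were seeded at 1,500 cells/well one day before compound addition. Compounds were tested without virus in duplicate over 7 points from 100 μM in 1/2 steps, with 1% final DMSO, 5 days at 37 °C, 5% CO2. Viability was read by CCK-8 after 3-4 hours.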

[3] abbreviates: human respiratory syncytial virus, HEp-2, 120 h, read-out: 50% effective concentration (EC50), HEp-2 cells infected with RSV long strain, 5 days, CCK-8 readout.
Setting [4] is: human respiratory syncytial virus.
Where [5] appears, read: human respiratory syncytial virus, 120 h, read-out: 50% effective concentration (EC50), HEp-2 cells infected with RSV long strain, 5 days, CCK-8 readout.

recombinant RSV complex, sequence (P28887 whole entry): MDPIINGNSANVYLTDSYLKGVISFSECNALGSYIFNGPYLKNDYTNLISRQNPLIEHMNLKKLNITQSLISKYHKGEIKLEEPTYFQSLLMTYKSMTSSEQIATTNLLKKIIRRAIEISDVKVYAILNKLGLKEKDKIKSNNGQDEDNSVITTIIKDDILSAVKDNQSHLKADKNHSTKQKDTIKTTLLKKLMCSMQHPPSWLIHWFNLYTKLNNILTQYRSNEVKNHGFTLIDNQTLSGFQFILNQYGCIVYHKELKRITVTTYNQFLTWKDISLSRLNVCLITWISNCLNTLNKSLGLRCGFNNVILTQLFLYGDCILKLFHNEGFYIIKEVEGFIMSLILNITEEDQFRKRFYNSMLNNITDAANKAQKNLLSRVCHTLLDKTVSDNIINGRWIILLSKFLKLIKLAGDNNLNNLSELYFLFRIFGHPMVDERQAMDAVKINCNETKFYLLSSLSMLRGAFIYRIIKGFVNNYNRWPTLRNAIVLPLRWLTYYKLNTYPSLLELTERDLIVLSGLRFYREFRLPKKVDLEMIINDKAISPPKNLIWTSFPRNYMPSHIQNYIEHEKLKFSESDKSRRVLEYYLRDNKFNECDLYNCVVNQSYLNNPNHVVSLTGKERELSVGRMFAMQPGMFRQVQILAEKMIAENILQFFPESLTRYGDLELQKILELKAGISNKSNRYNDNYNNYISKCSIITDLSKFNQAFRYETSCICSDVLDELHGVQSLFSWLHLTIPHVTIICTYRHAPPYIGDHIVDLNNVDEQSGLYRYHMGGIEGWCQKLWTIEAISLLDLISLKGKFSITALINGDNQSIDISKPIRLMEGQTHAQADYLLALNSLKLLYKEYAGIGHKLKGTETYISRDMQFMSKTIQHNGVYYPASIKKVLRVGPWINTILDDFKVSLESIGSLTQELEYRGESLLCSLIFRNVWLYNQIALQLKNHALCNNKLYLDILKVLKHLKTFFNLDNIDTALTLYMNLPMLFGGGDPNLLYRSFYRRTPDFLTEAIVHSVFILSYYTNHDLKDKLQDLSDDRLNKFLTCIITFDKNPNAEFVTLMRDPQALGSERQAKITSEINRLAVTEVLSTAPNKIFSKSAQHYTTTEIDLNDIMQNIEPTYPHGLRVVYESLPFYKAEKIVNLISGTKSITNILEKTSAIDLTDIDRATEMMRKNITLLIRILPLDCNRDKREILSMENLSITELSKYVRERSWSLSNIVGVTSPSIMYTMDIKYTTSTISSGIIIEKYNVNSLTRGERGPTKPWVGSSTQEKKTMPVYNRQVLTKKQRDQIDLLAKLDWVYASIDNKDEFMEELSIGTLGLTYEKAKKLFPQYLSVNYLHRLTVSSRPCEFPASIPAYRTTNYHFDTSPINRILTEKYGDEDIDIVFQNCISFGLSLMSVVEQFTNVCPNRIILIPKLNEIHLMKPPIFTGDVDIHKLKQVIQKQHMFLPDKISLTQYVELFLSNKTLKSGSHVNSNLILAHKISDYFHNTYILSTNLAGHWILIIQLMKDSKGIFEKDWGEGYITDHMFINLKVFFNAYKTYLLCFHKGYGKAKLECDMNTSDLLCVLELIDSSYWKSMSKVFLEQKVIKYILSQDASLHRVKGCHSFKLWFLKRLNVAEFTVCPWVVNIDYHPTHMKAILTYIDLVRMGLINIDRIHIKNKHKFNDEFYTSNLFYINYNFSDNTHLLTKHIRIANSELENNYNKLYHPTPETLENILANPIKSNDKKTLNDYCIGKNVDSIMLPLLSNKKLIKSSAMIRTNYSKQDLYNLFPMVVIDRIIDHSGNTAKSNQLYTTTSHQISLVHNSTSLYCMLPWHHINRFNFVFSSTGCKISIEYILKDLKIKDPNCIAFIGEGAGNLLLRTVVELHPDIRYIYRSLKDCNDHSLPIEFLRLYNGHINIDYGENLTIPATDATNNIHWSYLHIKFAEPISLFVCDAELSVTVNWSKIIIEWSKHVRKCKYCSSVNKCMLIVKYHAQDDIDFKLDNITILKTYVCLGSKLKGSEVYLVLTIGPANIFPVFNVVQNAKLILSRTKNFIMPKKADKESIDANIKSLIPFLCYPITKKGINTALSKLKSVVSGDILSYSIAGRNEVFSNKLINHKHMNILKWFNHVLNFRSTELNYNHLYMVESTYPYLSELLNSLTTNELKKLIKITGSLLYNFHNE
recombinant RSV complex, sequence (P03421 whole entry, further chain): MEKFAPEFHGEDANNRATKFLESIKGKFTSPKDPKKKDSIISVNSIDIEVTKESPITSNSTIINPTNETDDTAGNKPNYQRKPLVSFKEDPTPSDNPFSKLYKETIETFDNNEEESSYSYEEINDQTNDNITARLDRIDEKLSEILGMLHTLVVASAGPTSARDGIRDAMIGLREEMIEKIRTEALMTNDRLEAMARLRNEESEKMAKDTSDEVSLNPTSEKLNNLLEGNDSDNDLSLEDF
Method for RSV replicon: The Renilla Luciferase Assay System (Promega, Cat. #E2820) was used to measure anti-RSV replicon activity. […] Luminescence was recorded using a Perkin Elmer multilabel counter Victor3V. EC50, the concentration of the drug required for reducing RSV replicon RNA by 50% in relation to the untreated cell control value, was calculated from the plot of percentage reductions of the optical density (OD) value against the drug concentrations using the Microsoft Excel forecast function.

Turning to `COc1cc(C(=O)NCC(O)(c2cc(C(C)(C)N)cc(-c3c[nH]c4c(F)cccc34)n2)C(F)(F)F)ccc1OC1CC1` (centres unmarked) [Compound 519], the EC50 (in series [1] (setting [3]); in the series with RSV replicon (setting [4])) was less than 1000 nM in each case. Further, the IC50 on recombinant RSV complex was less than 1000 nM.

In the case of `COc1cc(C(=O)NCC(O)(Cn2cccn2)c2ccc(OC)c(-c3ccc(F)c(Cl)c3)n2)ccc1OCCO` (centres unmarked) [Compound 184], the EC50 was less than 1000 nM in series [1] (read-out: 50% effective concentration (EC50), HEp-2 cells infected with RSV long strain, 5 days, CCK-8 readout) and less than 1000 nM in the series on RSV replicon (RSV replicon, 395 HeLa or APC126 cells, value given by membership in Table H / Table I). Further, at recombinant RSV complex (read-out: IC50 (compound concentration at which the enzyme-catalyzed rate was reduced by 50%), 10 nM recombinant RSV complex, 2 h at 30° C., Tables E, F and G list compounds by IC50 band), the IC50 was less than 1000 nM.

Consider `COc1cc(C(=O)NCC(O)(c2cc(C(C)(C)N)cc(-c3ccc(F)c(Cl)c3)n2)C(F)(F)F)ccc1OCC(=O)O` (centres unmarked) [Compound 578], for which the 50% cytotoxic concentration (CC50) at 5 days in series [2] is 10000 to 100000 nM. For the same compound, the IC50 on recombinant RSV complex was less than 1000 nM. Besides, the EC50 in the series with RSV replicon (setting [4]) is less than 1000 nM.

As for `COc1cc(C(=O)NCC(O)(c2cc(C(C)(C)N)cc(-c3ccc(F)c(Cl)c3)n2)C(F)(F)F)ccc1OC1CC1` (centres unmarked) [Compound 314], the EC50 (in series [1] (setting [3]); in the series with RSV replicon (setting [4])) was less than 1000 nM each time. Besides, the IC50 at recombinant RSV complex is less than 1000 nM.

Regarding `COc1ccc(C(=O)NCC(O)c2cccc(-c3csc4c(F)cccc34)n2)cc1OC` (centres unmarked) [Compound 106], the EC50 in series [1] (setting [5]) was 1000 to 50000 nM; in the series with RSV replicon (setting [4]) it was less than 1000 nM. Further, the CC50 at 5 days in series [2] was 10000 to 100000 nM.

As to `COc1cc(C(=O)NCC(O)(c2cc(C(C)(C)NC(=O)CN)cc(-c3ccc(F)c(Cl)c3)n2)C(F)(F)F)ccc1OC1CC1` (centres unmarked) [Compound 497], the EC50 (in series [1] (setting [3]); in the series with RSV replicon (setting [4])) was less than 1000 nM each time. For the same compound, the IC50 on recombinant RSV complex was less than 1000 nM.

For `COc1cc(C(=O)NC[C@](O)(c2cc3c(c(-c4ccc(C#N)cc4)n2)OC[C@]3(C)N)C(F)(F)F)ccc1OCCO` [Compound 604d], the EC50 (in series [1] (setting [3]); in the series on RSV replicon (setting [4])) was less than 1000 nM each time. The IC50 on recombinant RSV complex is less than 1000 nM.

In the case of `COc1cc(C(=O)NCC(O)(c2cc(C(C)(C)N)cc(-c3ccc(F)c(Cl)c3)n2)C2CC2)ccc1OC1CC1` (centres unmarked) [Compound 667], the EC50 (in series [1] (setting [3]); with RSV replicon (setting [4])) was less than 1000 nM in each case. In addition, the IC50 on recombinant RSV complex was less than 1000 nM.

With `CC(C)(N)c1cc(-c2ccc(F)c(Cl)c2)nc(C(O)(CNC(=O)c2ccc3c(c2)OC(F)(F)O3)C(F)(F)F)c1` (centres unmarked) [Compound 275], the EC50 in series [1] (setting [3]) was 1000 to 50000 nM; in the series with RSV replicon (setting [4]), less than 1000 nM. For the same compound, the IC50 on recombinant RSV complex was less than 1000 nM.

`COc1cc(C(=O)NCC(O)(c2cc3c(c(-c4ccc(C(=O)O)cc4)n2)OCC3(C)N)C(F)(F)F)ccc1OCCO` (centres unmarked) [Compound 675] showed a CC50 at 5 days in series [2] of more than 100000 nM. Further, in the series with RSV replicon (setting [4]), the EC50 is less than 1000 nM.

As for `CCOc1ccc(C(=O)NCC(O)(c2cc3c(c(-c4ccc(F)c(Cl)c4)n2)OCC3(C)N)C(F)(F)F)cc1Cl` (centres unmarked) [Compound 494], the EC50 (in series [1] (setting [3]); with RSV replicon (setting [4])) was less than 1000 nM each time. Further, the IC50 at recombinant RSV complex is less than 1000 nM.

On to `COc1cc(C(=O)NCC(O)(c2cc(C(C)(C)N)cc(-c3ccc(F)c(Cl)c3)n2)C(F)(F)F)ccc1OC1CC1(F)F` (centres unmarked) [Compound 324], for which the EC50 (in series [1] (setting [3]); in the series with RSV replicon (setting [4])) was less than 1000 nM throughout. For the same compound, on recombinant RSV complex, the IC50 was less than 1000 nM.

In series [2], `COc1cc(C(=O)NCC(O)(c2cc(C(C)(C)O)cc(-c3ccc(F)c(Cl)c3)n2)C(F)(F)F)ccc1OC1CC1` (centres unmarked) [Compound 386] yielded a CC50 at 5 days of 10000 to 100000 nM. Besides, the IC50 at recombinant RSV complex is less than 1000 nM. Also, the EC50 in the series with RSV replicon (setting [4]) is less than 1000 nM.

With `COc1cc(C(=O)NCC(O)(c2cc(C(C)(C)N)cc(-c3ccc(F)c(Cl)c3)n2)C(F)(F)F)ccc1OCC(F)(F)F` (centres unmarked) [Compound 325], the EC50 (in series [1] (setting [3]); with RSV replicon (setting [4])) was less than 1000 nM each time. Further, the IC50 at recombinant RSV complex is less than 1000 nM.

Take `CNC(C)(C)c1cc(-c2ccc(F)c(Cl)c2)nc(C(O)(CNC(=O)c2ccc(OC3CC3)c(OC)c2)C(F)(F)F)c1` (centres unmarked) [Compound 394]: the EC50 (in series [1] (setting [3]); with RSV replicon (setting [4])) was less than 1000 nM throughout. The IC50 on recombinant RSV complex was less than 1000 nM.

Regarding `COCCNC(C)(C)c1cc(-c2ccc(F)c(Cl)c2)nc(C(O)(CNC(=O)c2ccc(OC3CC3)c(OC)c2)C(F)(F)F)c1` (centres unmarked) [Compound 505], the EC50 (in series [1] (setting [3]); in the series on RSV replicon (setting [4])) was less than 1000 nM in each case. In addition, the IC50 on recombinant RSV complex was less than 1000 nM.

On to `COc1cc(C(=O)NCC(O)(c2cc3c(c(-c4ccc(F)c(Cl)c4)n2)OCC3(C)NCCN)C(F)(F)F)ccc1OC1CC1` (centres unmarked) [Compound 499], for which the EC50 (in series [1] (setting [3]); in the series with RSV replicon (setting [4])) was less than 1000 nM throughout. Also, the IC50 on recombinant RSV complex was less than 1000 nM.

Take `CC(C)(N)c1cc(-c2ccc(F)c(Cl)c2)nc(C(O)(CNC(=O)c2ccc3c(c2)OCCO3)C(F)(F)F)c1` (centres unmarked) [Compound 273]: the EC50 (in series [1] (setting [3]); in the series with RSV replicon (setting [4])) was less than 1000 nM throughout. Moreover, the IC50 on recombinant RSV complex was less than 1000 nM.

In the case of `COc1cc(C(=O)NCC(O)(c2cc(C(C)(C)N)cc(-c3ccc(F)c(C(F)(F)F)c3)n2)C(F)(F)F)ccc1OC1CC1` (centres unmarked) [Compound 521], the EC50 (in series [1] (setting [3]); in the series on RSV replicon (setting [4])) was less than 1000 nM in each case. Further, at recombinant RSV complex, the IC50 was less than 1000 nM.

Turning to `CC(C)(N)c1cc(-c2ccc(F)c(Cl)c2)nc(C(O)(CNC(=O)c2ccc(OC3CC3)c(Cl)c2)C(F)(F)F)c1` (centres unmarked) [Compound 282], the EC50 (in series [1] (setting [3]); with RSV replicon (setting [4])) was less than 1000 nM throughout. The IC50 at recombinant RSV complex was less than 1000 nM.

Regarding `COc1cc(C(=O)NCC(O)(c2cc(C(C)(C)NCCN)cc(-c3ccc(F)c(Cl)c3)n2)C(F)(F)F)ccc1OC1CC1` (centres unmarked) [Compound 508], the EC50 (in series [1] (setting [3]); in the series with RSV replicon (setting [4])) was less than 1000 nM throughout. At recombinant RSV complex, the IC50 is less than 1000 nM.

As for `COc1cc(C(=O)NCC(O)(c2cc(C(C)(C)N)cc(-c3ccc(Cl)cc3)n2)C(F)(F)F)ccc1OC1CC1` (centres unmarked) [Compound 520], the EC50 (in series [1] (setting [5]); in the series on RSV replicon (setting [4])) was less than 1000 nM throughout. For the same compound, the IC50 on recombinant RSV complex is less than 1000 nM.

The compound `COc1cc(C(=O)NCC(O)(c2cc3c(c(-c4ccc(CO)cc4)n2)OCC3(C)N)C(F)(F)F)ccc1OCCO` (centres unmarked) [Compound 672] returned a CC50 at 5 days in series [2] of more than 100000 nM. Besides, the IC50 on recombinant RSV complex is less than 10000 nM. Further, the EC50 in the series with RSV replicon (setting [4]) is less than 1000 nM.

The compound `COc1cc(C(=O)NCC2(c3cccc(-c4csc5c(F)cccc45)n3)COC2)ccc1OCCO` [Compound 163] registered a CC50 at 5 days in series [2] of 10000 to 100000 nM. Further, the EC50 in the series with RSV replicon (setting [4]) was 1000 to 50000 nM.

On to `CC(C)(N)c1cc(-c2ccc(F)c(Cl)c2)nc(C(O)(CNC(=O)c2ccc(OC3CCNC3=O)c(Cl)c2)C(F)(F)F)c1` (centres unmarked) [Compound 281], for which the EC50 (in series [1] (setting [3]); in the series with RSV replicon (setting [4])) was less than 1000 nM throughout. For the same compound, the IC50 on recombinant RSV complex was less than 1000 nM.

In the case of `COc1cc(C(=O)NCC(O)(c2cc(C(C)(C)N)cc(-c3ccc(F)c(Cl)c3)n2)C(F)(F)F)ccc1OC1CC(F)C1` (centres unmarked) [Compound 323], the EC50 (in series [1] (setting [3]); in the series with RSV replicon (setting [4])) was less than 1000 nM in each case. Further, the IC50 on recombinant RSV complex is less than 1000 nM.

On to `COc1cc(C(=O)NCC(O)(c2cc(C(C)(C)N)cc(-c3ccc(F)cc3)n2)C(F)(F)F)ccc1O[C@H]1CCNC1=O` (some centres unmarked) [Compound 319], for which the IC50 on recombinant RSV complex is less than 1000 nM. Besides, the EC50 with RSV replicon (setting [4]) is less than 1000 nM.

Turning to `COc1cc(C(=O)NCC(O)(c2cc(C(C)(C)N)cc(-c3ccc(F)c(Cl)c3)n2)C(F)(F)F)ccc1OC1CC1` (single isomer, unassigned) [Compound 272], the EC50 (in series [1] (setting [3]); in the series on RSV replicon (setting [4])) was less than 1000 nM each time. Also, the IC50 at recombinant RSV complex was less than 1000 nM.

`CCNC(C)(C)c1cc(-c2ccc(F)c(Cl)c2)nc(C(O)(CNC(=O)c2ccc(OC3CC3)c(OC)c2)C(F)(F)F)c1` (centres unmarked) [Compound 390]: on recombinant RSV complex, the IC50 was less than 1000 nM. For the same compound, the EC50 with RSV replicon (setting [4]) was less than 1000 nM.

`COc1cc(C(=O)NCC(O)(c2ccc(OC)c(-c3ccc(F)c(Cl)c3)n2)c2cnn(C)n2)ccc1OCCO` (centres unmarked) [Compound 198]: the EC50 (in series [1] (setting [3]); in the series on RSV replicon (setting [4])) was less than 1000 nM throughout. Moreover, the IC50 on recombinant RSV complex was less than 1000 nM.
